Results taken from patent publication US8093301B2, “Anti-allergic agent” (Meiji Co., Ltd., priority 2005, dated 2012).
≈ marks a conversion by molar mass, not a printed value. Where “and” joins values, the source holds several entries; their conditions need not be identical. Equal entries are not always repeated. Structures can show the parent of a compound that is named as a salt. Where two headings read alike, the source gives them in different places.

Columns and labels:
[1] = tested on: basophil-like cells (RBL-2H3); test: β-hexosaminidase release inhibition test (degranulation of IgE-sensitised, DNP-BSA-stimulated cells); assay type: cell-based; details: for IC50: read-out: 50% β-hexosaminidase release inhibitory concentration (IC50)
Method: In the Examples, the degree of cell degranulation was assessed through determination of β-hexosaminidase activity. In a specific procedure, basophil-like cells (RBL-2H3, Human Science Laboratory Resource Bank) were suspended in a Dulbecco's modified Eagle's medium (DMEM, product of Gibco) containing a 10% fetal calf serum, and the suspension was incubated overnight at 37° C. in a 96-well plate (2.5×10^5 cells/mL) in the presence of 0.1 μg/mL anti-dinitrophenyl (DNP)-IgE antibody (product of SIGMA).
The thus-treated basophil-like cells (RBL-2H3) were washed with phosphate buffer (PBS) and further incubated at 37° C. for 30 minutes in the presence of each test substance (Examples 1 to 6 and Comparative Examples 1 to 3) at a predetermined concentration. The concentrations at which incubation was performed were 0.1, 0.2, 0.3, 0.4, and 0.5 μM (ACNQ); 20, 30, 40, 60, and 80 μM (DHNA); 60, 70, 80, 90, and 100 μM (2-methyl-1,4-naphthoquinone (vitamin K3)); 10, 20, 30, 40, and 50 μM (4-amino-2-methyl-1-naphthol (vitamin K5)); 10, 20, 30, 40, and 50 μM (1,4-naphthoquinone); 3, 4, 5, 6, and 7 μM (2-amino-3-chloro-1,4-naphthoquinone); 50 and 100 μM (vitamin K1); 25, 50, and 100 μM (vitamin K2); and 50 and 100 μM (1,3-naphthalenediol).
The thus-incubated basophil-like cells (RBL-2H3) were washed with PBS, and further incubated at 37° C. for one hour in the presence of 1-μg/mL DNP-BSA (product of SSL). After completion of incubation, a supernatant was recovered from each well, and the activity of β-hexosaminidase contained in each supernatant was determined. The activity of β-hexosaminidase remaining in the cells was also determined through solubilizing the remaining cells with 0.1% polyoxyethylene(10)octylphenyl ether/DMEM.
Each of the thus-obtained supernatants and cell solubilized liquids was added to a 96-well plate (50 μL/well), and 2 mM p-nitrophenyl N-acetyl-β-D-glucosaminide (product of SIGMA) serving as a substrate was added thereto (50 μL/well). After incubation at 37° C. for two hours, a suppressor (1M Tris, pH: 9.0) was added thereto (150 μL/well), and the absorbance at 415 nm was measured by means of a plate reader. For assessing degranulation, percent β-hexosaminidase release (%) was calculated through the following formula: Percent β-hexosaminidase release (%)=100×(OD415 of supernatant)/(OD415 of supernatant+OD415 of solubilized cells).
The β-hexosaminidase activity of supernatant was determined as described above. The β-hexosaminidase activity of a supernatant of basophil-like cells (RBL-2H3) incubated in the presence of each of the test substances of Examples 1 to 6 and Comparative Examples 1 to 3) was measured, whereby 50% β-hexosaminidase release inhibitory concentration (IC50) was calculated.

PCA reaction = test: PCA reaction, Evans Blue leakage to ear auricles; assay type: in vivo; details: ICR mice, 100 μg/kg perorally one hour before PCA induction, compared with CMC sodium-administered group, P<0.05 t-test (FIG. 3)
Method: ICR mice (female, 6-week old) were preliminarily bred and grouped into the following three groups such that these groups had the same average body weight: Group 1, 0.5% carboxy-methyl-cellulose (CMC) sodium-administered group (Comparative Example 4); Group 2, ACNQ (100 μg/kg)-administered group (Example 7); and Group 3, PCA-non-induced group (Comparative Example 5). Groups 1 and 2 each included 8 mice, and Group 3 included 4 mice. Group 1 (CMC sodium-administered group) served as a control group with respect to Group 2 (ACNQ-administered group).
To each of the ICR mice of Groups 1 and 2, an anti-DNP-IgE antibody (100 ng/body) was intradermally administered through an ear auricle. Instead of the anti-DNP-IgE antibody, physiological saline was administered in a similar manner to each of the ICR mice of Group 3. […]
Subsequently, one hour after administration of each test substance, DNP-bound BSA (0.25 mg/body) serving as an antigen and Evans Blue were intravenously administered to each of the ICR mice of Groups 1 to 3, to thereby induce PCA. […] The absorbance of each extract at 620 nm was determined, to thereby calculate the Evans Blue level leaked to the ear auricle.

[2] = tested on: basophil-like cells (RBL-2H3); details: Non-Patent Document 2; cited from earlier work
[3] = Rattus norvegicus, RBL-2H3, 0.5 h, RBL-2H3, 30 minutes incubation with test substance, DNP-BSA stimulation
[4] = Rattus norvegicus, RBL-2H3, 0.5 h, RBL-2H3, same IC50 expressed in μg/mL
[5] = Rattus norvegicus, RBL-2H3, RBL-2H3, same IC50 expressed in μg/mL
[6] = RBL-2H3, 30 minutes incubation with test substance, DNP-BSA stimulation
[7] = RBL-2H3, same IC50 expressed in μg/mL

Row | Molecule | IC50 [1, 3] [µM] | IC50 [1, 4] [µg/mL] | IC50 [1, 5] [µg/mL] | also measured
1 | Oc1cc(O)c2ccccc2c1 [1,3-Naphthalenediol, 1,3-naphthalenediol, reference compound] |  |  |  | IC50 ([1]; Rattus norvegicus, RBL-2H3, 0.5 h): > 100 µM and > 16 µg/mL
2 | O=C1C=CC(=O)c2ccccc21 [1,4-Naphthoquione, 1,4-naphthoquinone] | ~30 | 4.7 | 4.7 | 
3 | NC1=C(Cl)C(=O)c2ccccc2C1=O [2-Amino-3-chloro-1,4-naphthoquinone, 2-amino-3-chloro-1,4-naphthoquinone] | 6.8 | 1.4 | 1.4 | 
4 | NC1=C(C(=O)O)C(=O)c2ccccc2C1=O [ACNQ, 2-amino-3-carboxy-1,4-naphthoquinone] | 0.25 | 0.0545 | 0.0545 | percent β-hexosaminidase release, relative to that of sample containing no test substance (0 μM) ([1]; ACNQ concentration ≧0.4 μM (FIG. 1)): about 20%; Evans Blue level leaked to the ear auricle (PCA reaction): significantly lowered
5 | O=C(O)c1cc(O)c2ccccc2c1O [DHNA, 1,4-dihydroxy-2-naphthoic acid] | ~50 | 8.2 | 8.2 | percent β-hexosaminidase release, relative to that of sample containing no test substance (0 μM) ([1]; DHNA concentration ≧60 μM (FIG. 2)): about 20%
6 | CC1=C(C/C=C(\C)CCC[C@H](C)CCC[C@H](C)CCCC(C)C)C(=O)c2ccccc2C1=O [Vitamin K1, phylloquione, reference compound] |  |  |  | IC50 [1, 6]: > 100 µM; 50% β-hexosaminidase release inhibitory concentration (IC50) [1, 7]: (>45.1 μg/mL)
7 | CC1=CC(=O)c2ccccc2C1=O [Vitamin K3, 2-methyl-1,4-naphthoquinone] | ~50 | 11.5 | 11.5 | 
8 | Cc1cc(N)c2ccccc2c1O [Vitamin K5, 4-amino-2-methyl-1-naphthol] | ~30 | 6.1 | 6.1 | 
9 | CN1CCC(=C2c3ccccc3CC(=O)c3sccc32)CC1 [ketotifen fumarate, 4-(1-methyl-4-piperidylidene-4H-benzo[4,5]-cyclohepta[1,2-b]-thiophen-10(9H)-one hydrogen fumarate] |  |  |  | IC50 [2]: 214 µM; IC50 to basophil-like cells (RBL-2H3) [2]: 91 µg/mL
10 | COc1ccc(C=CC(=O)Nc2ccccc2C(=O)O)cc1OC [tranilast, N-(3,4-dimethoxycinnamoyl)anthranilic acid] |  |  |  | IC50 [2]: 492 µM; IC50 to basophil-like cells (RBL-2H3) [2]: 161 µg/mL (≈ 492 µM)
11 | menaquinone [Vitamin K2, reference compound] |  |  |  | IC50 [1, 6]: > 100 µM; 50% β-hexosaminidase release inhibitory concentration (IC50) [1, 7]: (>44 μg/mL)
